Data published in PubChem BioAssay AID1963830 (Molecular Pharmacology Branch, DTP, NCI, 2024).

Tested on: 922993-354-T-J3-PDC complex spheroid viability
Experiment: Anticancer human tumor 922993-354-T-J3-PDC patient-derived endometrial carcinoma cell line growth inhibition [POLQ]
Details: for IC50: curve of first compound; for viability, T/C: stronger effect = lower value; active = viability on the fitted dose curve at most 10% of control; inactive = the rest
Outline: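 Three-cell-type spheroids modelling solid tumor plus stroma served as the readout system; POL inhibitors were tested individually and in combination, concentration ranges set by clinical Cmax where known.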

[1] = second compound 0.0316 µM, first compound 0.0316 µM
[2] = second compound 0.0316 µM, first compound 0.1 µM
[3] = second compound 0.0316 µM, first compound 0.316 µM
[4] = second compound 0.0316 µM, first compound 1 µM
[5] = second compound 0.0316 µM, first compound 3.16 µM
[6] = second compound 0.0316 µM, first compound 10 µM
[7] = second compound 0.1 µM, first compound 0.0316 µM
[8] = second compound 0.1 µM, first compound 0.1 µM
[9] = second compound 0.1 µM, first compound 0.316 µM
[10] = second compound 0.1 µM, first compound 1 µM
[11] = second compound 0.1 µM, first compound 3.16 µM
[12] = second compound 0.1 µM, first compound 10 µM
[13] = second compound 0.316 µM, first compound 0.0316 µM
[14] = second compound 0.316 µM, first compound 0.1 µM
[15] = second compound 0.316 µM, first compound 0.316 µM
[16] = second compound 0.316 µM, first compound 1 µM
[17] = second compound 0.316 µM, first compound 3.16 µM
[18] = second compound 0.316 µM, first compound 10 µM
[19] = second compound 1 µM, first compound 0.0316 µM
[20] = second compound 1 µM, first compound 0.1 µM
[21] = second compound 1 µM, first compound 0.316 µM
[22] = second compound 1 µM, first compound 1 µM
[23] = second compound 1 µM, first compound 3.16 µM
[24] = second compound 1 µM, first compound 10 µM
[25] = second compound 3.16 µM, first compound 0.0316 µM
[26] = second compound 3.16 µM, first compound 0.1 µM
[27] = second compound 3.16 µM, first compound 0.316 µM
[28] = second compound 3.16 µM, first compound 1 µM
[29] = second compound 3.16 µM, first compound 3.16 µM
[30] = second compound 3.16 µM, first compound 10 µM
[31] = second compound 10 µM, first compound 0.0316 µM
[32] = second compound 10 µM, first compound 0.1 µM
[33] = second compound 10 µM, first compound 0.316 µM
[34] = second compound 10 µM, first compound 1 µM
[35] = second compound 10 µM, first compound 3.16 µM
[36] = second compound 10 µM, first compound 10 µM
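Note: spheroids exposed to the agents for one week.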
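Throughout, for viability, T/C: 100% = DMSO vehicle control wells.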

O=C(Nc1ccc(O)c(NS(=O)(=O)c2ccc(F)cc2)c1)c1ccc(-c2ccccc2)cc1 + Cc1cccc(N(C)C(=O)C2C(O)CCN2c2nc(C)cc(C(F)(F)F)c2C#N)c1
inactive: viability, T/C [1] 106% | viability, T/C [2] 104% | viability, T/C [3] 99.2% | viability, T/C [4] 101% | viability, T/C [5] 104% | viability, T/C [6] 105% | viability, T/C [7] 104% | viability, T/C [8] 101% | viability, T/C [9] 106% | viability, T/C [10] 100% | viability, T/C [11] 104% | viability, T/C [12] 104% | viability, T/C [13] 98.8% | viability, T/C [14] 104% | viability, T/C [15] 97.2% | viability, T/C [16] 98.6% | viability, T/C [17] 104% | viability, T/C [18] 103% | viability, T/C [19] 99.6% | viability, T/C [20] 102% | viability, T/C [21] 101% | viability, T/C [22] 102% | viability, T/C [23] 103% | viability, T/C [24] 104% | viability, T/C [25] 101% | viability, T/C [26] 101% | viability, T/C [27] 97.5% | viability, T/C [28] 99.6% | viability, T/C [29] 94.8% | viability, T/C [30] 102% | viability, T/C [31] 98.1% | viability, T/C [32] 99.9% | viability, T/C [33] 102% | viability, T/C [34] 93.7% | viability, T/C [35] 94% | viability, T/C [36] 97%
> 10 µM: IC50 (second compound 0.0316 µM) | IC50 (second compound 0.1 µM) | IC50 (second compound 0.316 µM) | IC50 (second compound 1 µM) | IC50 (second compound 3.16 µM) | IC50 (second compound 10 µM)

CCCS(=O)(=O)Nc1ccc(F)c(C(=O)c2c[nH]c3ncc(-c4ccc(Cl)cc4)cc23)c1F + COC1C(OC(N)=O)C(O)C(Oc2ccc3c(O)c(NC(=O)c4ccc(O)c(CC=C(C)C)c4)c(=O)oc3c2C)OC1(C)C
inactive: viability, T/C [1] 98.7% | viability, T/C [2] 97% | viability, T/C [3] 97.3% | viability, T/C [4] 110% | viability, T/C [5] 106% | viability, T/C [6] 68.6% | viability, T/C [7] 102% | viability, T/C [8] 103% | viability, T/C [9] 103% | viability, T/C [10] 110% | viability, T/C [11] 102% | viability, T/C [12] 83.6% | viability, T/C [13] 112% | viability, T/C [14] 102% | viability, T/C [15] 107% | viability, T/C [16] 109% | viability, T/C [17] 93% | viability, T/C [18] 67.1% | viability, T/C [19] 93.6% | viability, T/C [20] 103% | viability, T/C [21] 101% | viability, T/C [22] 103% | viability, T/C [23] 90.5% | viability, T/C [24] 86.8% | viability, T/C [25] 94.7% | viability, T/C [26] 103% | viability, T/C [27] 95.9% | viability, T/C [28] 94.1% | viability, T/C [29] 101% | viability, T/C [30] 73.8% | viability, T/C [31] 90% | viability, T/C [32] 84.3% | viability, T/C [33] 79.8% | viability, T/C [34] 85.1% | viability, T/C [35] 90.4% | viability, T/C [36] 59.5%
> 10 µM: IC50 (second compound 0.0316 µM) | IC50 (second compound 0.1 µM) | IC50 (second compound 0.316 µM) | IC50 (second compound 1 µM) | IC50 (second compound 3.16 µM) | IC50 (second compound 10 µM)

CNCc1ccc(-c2[nH]c3cc(F)cc4c3c2CCNC4=O)cc1 + COC1C(OC(N)=O)C(O)C(Oc2ccc3c(O)c(NC(=O)c4ccc(O)c(CC=C(C)C)c4)c(=O)oc3c2C)OC1(C)C
inactive: viability, T/C [1] 104% | viability, T/C [2] 100% | viability, T/C [3] 98.3% | viability, T/C [4] 109% | viability, T/C [5] 105% | viability, T/C [6] 85.4% | viability, T/C [7] 107% | viability, T/C [8] 106% | viability, T/C [9] 94.3% | viability, T/C [10] 90% | viability, T/C [11] 91.5% | viability, T/C [12] 78.6% | viability, T/C [13] 102% | viability, T/C [14] 103% | viability, T/C [15] 108% | viability, T/C [16] 90.3% | viability, T/C [17] 85.8% | viability, T/C [18] 81.3% | viability, T/C [19] 102% | viability, T/C [20] 101% | viability, T/C [21] 98.2% | viability, T/C [22] 107% | viability, T/C [23] 89% | viability, T/C [24] 77.4% | viability, T/C [25] 95.5% | viability, T/C [26] 89.9% | viability, T/C [27] 86.6% | viability, T/C [28] 79% | viability, T/C [29] 108% | viability, T/C [30] 70.1% | viability, T/C [31] 95.4% | viability, T/C [32] 80.8% | viability, T/C [33] 80.9% | viability, T/C [34] 73.1% | viability, T/C [35] 86.7% | viability, T/C [36] 78.8%
> 10 µM: IC50 (second compound 0.0316 µM) | IC50 (second compound 0.1 µM) | IC50 (second compound 0.316 µM) | IC50 (second compound 1 µM) | IC50 (second compound 3.16 µM) | IC50 (second compound 10 µM)
